Results reported in paper PMC7732531 (Frontiers in Pharmacology, 2020).
Values joined by “and” are separate entries in the source; they are usually repeats but may differ in a detail not shown here. Equal values may be shown once. Read-outs that look alike come from different tables or passages of the source.

Experiments:
[1] = in vitro; conditions: human, Caco-2
Procedure: (§1) Caco-2 cell lines were cultured (ATCC, Manassas, VA, United States) as described previously ([Liu et al., 2014]). Briefly, the cells were cultured at 37°C in 5% CO2 at 90% humidity in DMEM high glucose medium containing 20% fetal bovine serum, 1% nonessential amino acids, 100 U/ml penicillin and 1% streptomycin. For the efflux studies, the cells were seeded onto polyethylene terephthalate Millicell® cell culture inserts (0.4 μm pore size, 6.5 mm diameter, Millipore Corporation, Billerica, MA, United States) at a density of 1.7 × 10^5 cells/ml. The culture medium was refreshed on the day after seeding, after which it was refreshed every other day and on the day before the transport experiment. The cells were cultured for 20–22 days after seeding and then evaluated by measuring the transepithelial electrical resistance (TEER) (Millicell ERS®, Millipore Corporation) before experiments. […] Transepithelial permeability studies for YL-IPA08 (10 μM) were conducted from apical to basolateral side (A-B) and basolateral to apical side (B-A) for 120 min 0.2% BSA was included in the receiver solution to avoid nonspecific binding. At 60, 90, and 120 min, half volume of solution from receiver side was withdrawn, and same volume of HBSS was immediately added. Obtained samples were precipitated by adding 4× volumes of acetonitrile containing IS and centrifuged. The supernatants were stored in −20°C until further analysis by LC-MS/MS.
(§2) The in vitro t1/2 in liver microsomal incubation was calculated from the semi-log plot of percentage remaining vs. incubation time and intrinsic clearance (Clint, ml/min/mg protein) was calculated as Eq. 1: CLint=0.693/in vitro t1/2×volume of incubation (μl)/amount of microsomal protein in incubation (mg) (1) ([Suzuki et al., 2003]).Apparent permeability was obtained according to the equation Papp = (dQ/dt)/(A × C0), where dQ/dt is the mass transport rate (determined from the slope of the amount transported vs. time plot), A is the surface area of the monolayer, and C0 is the initial concentration of YL-IPA08 in the donor chamber ([Suzuki et al., 2003]). The efflux ratio was calculated for each study using the following equation: […] = Papp(B–A)/Papp(A–B), where Papp(B–A) and Papp(A–B) represent apparent drug permeability in the B to A and A to B direction, respectively. An efflux ratio greater than 2 indicates net efflux.

[2] = system: Caco-2 cells; assay: in vitro
Procedure: as §1, §2

[3] = in vivo; conditions: male, rat, po, 1 mg/kg
Procedure: (§3) The surgical procedure for portal vein catheter insertion was performed according to reference ([Matsuda et al., 2012]). Male SD rats (250–280 g) were purchased from Beijing Vital River Laboratory Animal Technology Co., Ltd. (Beijing, China). Rats were anesthetized with 2% pentobarbital sodium (0.2–0.3 mg/100 g) intraperitoneally dosed. Cannulation into the jugular vein was performed by the method of Murakami reported ([Murakami et al., 2003]) with minor modification. Briefly, an incision of ∼0.5 cm near right clavicle was made and the jugular vein was exposed. Next, this vein was cannulated with ∼12.5 cm of silicone gel tubing (0.6 mm I.D. × 0.9 mm O.D., Skillsmodel Inc., Beijing, China). The other side of the tubing was passed through the back skin. 2.5 cm midline incision was made in the abdominal cavity close to ensiform process and the portal vein was detached. To prevent bleeding, the portal vein was ligated temporarily as the catheter was inserted. The silicone tubing (22 cm, 0.6 mm I.D. × 0.9 mm O.D., Skillsmodel Inc., Beijing, China) was inserted immediately and fixed by a purse-string suture on the portal vein. The time to reperfusion was about 1 min after intercepted blood flow. In addition, a catheter with trumpet-shaped opening was used to prevent the catheter from slipping out of the vessel and minimize the effect on blood flow. Another end of the catheter was passed subcutaneously to the skin close to the scapula.
(§4) Blood samples were collected at 0, 0.083, 0.25, 0.5, 1, 2, 4, 6, 8 and 12 h. Blood (approximately 100 µl) was collected from the jugular and portal veins into tubes containing heparin on ice and centrifuged within 1 h of collection. Plasma was harvested and stored at −20°C for bioanalysis.
(§5) FaFg was calculated using mass balance method and rat portal blood flow (Qpv) of 32 ml/min/kg, where Rb/p is used to convert plasma concentrations to blood concentrations.

[4] = Brain distribution under steady state (Kp,uu); assay type: in vivo, rat
[5] = in vitro; assay type: in vitro ADME; conditions: rat
Procedure: (§6) The fraction of unbound YL-IPA08 in plasma and liver microsomes of rat and human, and brain homogenates of rat were determined utilizing Rapid Equilibrium Dialysis method ([Waters et al., 2008]). Rat brain homogenate was harvested in 4-fold volume (w/v) of PBS (pH 7.4). YL-IPA08 were spiked into fresh plasma, rat brain homogenate, liver microsomes (0.2 mg/ml protein) at concentration of 1 µM, and then dialyzed against biomatrices on a shaker at 37°C for 4 h. To avoid the high non-specific binding of YL-IPA08, 0.01% Tween 80 was added in the incubation mixture. At the end of the incubation, protein was precipitated with acetonitrile (containing IS) and analyzed by LC-MS/MS. Phenacetin, quinidine, and warfarin were selected as positive control for the protein binding test.
The unbound fraction of YL-IPA08 in plasma or liver microsomes (ƒu,x) was calculated as shown in Eq. 2, and unbound fraction in the tissue homogenate (ƒu,b) was calculated according to Eq. 3. fu,x = Concbuffer chamber/Concplasma/liver microsomes chamber (2) fu,b = Concbuffer chamber/Concbrain homogenate chamber (3) The measured unbound fractions would be higher when a tissue is homogenized and diluted in buffer, the unbound fractions in an undiluted tissues (ƒu,brain) were calculated using Eq. 4 ([Kalvass and Maurer, 2002]). Undiluted fu,brain=1/D/((1/fu,brain homogenate)−1)+1/D (4) Where D represents the fold of dilution factor in brain homogenates.

[6] = Metabolic stability in human liver microsomes (NADPH / UDPGA); conditions: HLM
[7] = male, rat, in vivo, po, 1 mg/kg; for Plasma concentration: SD
Procedure: as §3, §4, §5

[8] = in vitro; assay type: in vitro ADME; conditions: human, plasma
Procedure: as §6
The unbound fraction of YL-IPA08 in plasma or liver microsomes (ƒu,x) was calculated as shown in Eq. 2, and unbound fraction in the tissue homogenate (ƒu,b) was calculated according to Eq. 3. fu,x = Concbuffer chamber/Concplasma/liver microsomes chamber (2) fu,b = Concbuffer chamber/Concbrain homogenate chamber (3) The measured unbound fractions would be higher when a tissue is homogenized and diluted in buffer, the unbound fractions in an undiluted tissues (ƒu,brain) were calculated using Eq. 4 ([Kalvass and Maurer, 2002]). […]

[9] = Metabolic stability in rat liver microsomes (NADPH / UDPGA); conditions: RLM
[10] = Aqueous solubility / BCS class; assay type: physicochemical
[11] = system: TSPO; design: method as in Zhang et al. (2017); conditions: crude mitochondrial fraction from rat cerebellum, 10 volumes HS buffer; ref Zhang et al. (2017); cited from earlier work

Which Papp A→B at 120 min, 10 μM [1] does the source give for `CCN(Cc1ccccn1)C(=O)Cc1c(-c2ccc(Cl)c(Cl)c2)nc2cc(C)ccn12` [YL-IPA08] here?
The Papp A→B at 120 min, 10 μM was 3.99 ± 1.46 ×10⁻⁶ cm/s.

And the Papp B→A at 120 min, 10 μM [1]?
Its Papp B→A at 120 min, 10 μM is 2.63 ± 0.43 ×10⁻⁶ cm/s.

And the efflux ratio at 120 min, 10 μM [1]?
Its efflux ratio at 120 min, 10 μM is 0.66.

What about the “permeability across Caco-2 cells (in words)” value ([2]; Caco-2) of the same compound?
Its value is “high permeability”.

What about the “Concentration, DOB” value ([2]; Caco-2, basolateral donor at time 0) of the same compound?
Its value is 8883 ± 436 nM.

And the “Concentration, DOA” value ([2]; human, Caco-2, 0 min, 10 µM)?
The value was 8350 ± 173 nM.

And the “Concentration, A-B-B-60 min” value ([2]; human, Caco-2, 60 min, 10 µM)?
The value was 13 ± 4 nM.

And the “Concentration, B-A-A-60 min” value ([2]; human, Caco-2, 60 min, 10 µM)?
The value was 28 ± 8 nM.

And the “Concentration, A-B-B-90min” value ([2]; human, Caco-2, 90 min, 10 µM)?
Its value is 36 ± 25 nM.

And the “Concentration, B-A-A-90min” value ([2]; human, Caco-2, 90 min, 10 µM)?
The value was 68 ± 27 nM.

And the “Concentration, A-B-A-120 min” value ([2]; human, Caco-2, 120 min, 10 µM)?
Its value is 1755 ± 135 nM.

What about the “Concentration, A-B-B-120 min” value ([2]; human, Caco-2, 120 min, 10 µM) of the same compound?
The value was 50 ± 17 nM.

And the “Concentration, B-A-A-120 min” value ([2]; human, Caco-2, 120 min, 10 µM)?
Its value is 105 ± 14 nM.

And the “Concentration, B-A-B-120 min” value ([2]; human, Caco-2, 120 min, 10 µM)?
The value was 2598 ± 360 nM.

What about the “P appA-B” value ([2]; human, Caco-2, 120 min, 10 µM) of the same compound?
The value was 3.99 × 10^–6 cm/s.

And the “P appB-A” value ([2]; human, Caco-2, 120 min, 10 µM)?
Its value is 2.63 × 10^–6 cm/s.

And the concentration at 0.5 h ([3]; SD, Plasma concentration)?
Its concentration at 0.5 h is 77 ± 22.7 ng/mL.

And the concentration at 1 h ([3]; SD, Plasma concentration)?
Its concentration at 1 h is 75.5 ± 26.7 ng/mL.

What about the concentration at 2 h ([3]; SD, Plasma concentration) of the same compound?
Its concentration at 2 h is 78.3 ± 38.3 ng/mL.

What about the concentration at 4 h ([3]; SD, Plasma concentration) of the same compound?
Its concentration at 4 h is 34.1 ± 13.6 ng/mL.

What about the concentration at 6 h ([3]; SD, Plasma concentration) of the same compound?
Its concentration at 6 h is 11.7 ± 3.9 ng/mL.

What about the concentration at 8 h ([3]; SD, Plasma concentration) of the same compound?
The concentration at 8 h was 5.23 ± 1.47 ng/mL.

What about the concentration at 12 h ([3]; SD, Plasma concentration) of the same compound?
The concentration at 12 h was 1.96 ± 0.66 ng/mL.

And the AUC ([3]; Sprague-Dawley (SD), AUC)?
Its AUC is 441 ± 93 ng·h/mL.

What about the “unbound concentration in rat brain” value ([4]; estimated based on K p,uu) of the same compound?
The value was 0.0065 ng/mL.

What about the “unbound concentration in brain” value ([4]; rats, after 1 mg/kg oral dosing, estimated from plasma concentrations and K p,uu) of the same compound?
The value was 6.5 pg/g.

And the “Concentration, Cbuffer chamber” value ([5]; 4 h, 1 µM)?
Its value is 168.00 ± 5.66 nM.

And the “Concentration, Cplasma/microsome chamber” value ([5]; 4 h, 1 µM)?
Its value is 393.00 ± 18.03 nM.

What about the “Protein biding (%)” value ([5]; 4 h, 1 µM) of the same compound?
The value was 57.14 ± 2.92%.

What about the fraction unbound at 4 h, 1 µM ([5]; microsomes) of the same compound?
The fraction unbound at 4 h, 1 µM was 0.428.

What about the “Clint normalized by CYP content” value [6] of the same compound?
The value was 3.47 ± 0.04 ml/min/nmol CYP protein and 2.76 ± 0.05 ^a ml/min/nmol CYP protein.

What about the Plasma concentration ([7]; 0.5 h) of the same compound?
Its Plasma concentration is 111.40 ± 22.00 ng/mL.

And the Plasma concentration ([7]; 1 h)?
Its Plasma concentration is 101.93 ± 40.76 ng/mL.

And the Plasma concentration ([7]; 2 h)?
The Plasma concentration was 91.33 ± 38.19 ng/mL.

What about the Plasma concentration ([7]; 4 h) of the same compound?
Its Plasma concentration is 41.78 ± 20.79 ng/mL.

What about the Plasma concentration ([7]; 6 h) of the same compound?
The Plasma concentration was 12.85 ± 4.33 ng/mL.

And the Plasma concentration ([7]; 8 h)?
The Plasma concentration was 5.62 ± 1.64 ng/mL.

What about the Plasma concentration ([7]; 12 h) of the same compound?
The Plasma concentration was 1.98 ± 0.88 ng/mL.

What about the “F a F g” value ([7]; Sprague-Dawley (SD)) of the same compound?
Its value is 22%.

What about the fraction unbound at 4 h, 1 µM [8] of the same compound?
Its fraction unbound at 4 h, 1 µM is 0.001.

What about the “Clint normalized by CYP content” value [9] of the same compound?
The value was 3.47 ± 0.04 ml/min/nmol CYP protein.

And the “aqueous solubility (in words)” value [10]?
The value was “high aqueous solubility”.

And the BCS class ([10]; from high aqueous solubility and high permeability)?
Its BCS class is “BCS class I”.

What about the IC50 [11] of the same compound?
Its IC50 is 230 pM.
